Like-named read-outs stand apart in the source and are kept apart here.
What was measured:
Experiment in all cases: biochemical
[1] = target: CDK2/cyclin E (Homo sapiens, UniProt P24941)
[2] = target: Aurora2 kinase (Homo sapiens, UniProt O14965)
[3] = target: human FAK (Homo sapiens, UniProt Q05397)
[4] = target: human KDR enzyme (Homo sapiens, UniProt P35968)
[5] = target: human Tie2 (Homo sapiens, UniProt Q02763)
Sequence of human Tie2 (Q02763 776-1124): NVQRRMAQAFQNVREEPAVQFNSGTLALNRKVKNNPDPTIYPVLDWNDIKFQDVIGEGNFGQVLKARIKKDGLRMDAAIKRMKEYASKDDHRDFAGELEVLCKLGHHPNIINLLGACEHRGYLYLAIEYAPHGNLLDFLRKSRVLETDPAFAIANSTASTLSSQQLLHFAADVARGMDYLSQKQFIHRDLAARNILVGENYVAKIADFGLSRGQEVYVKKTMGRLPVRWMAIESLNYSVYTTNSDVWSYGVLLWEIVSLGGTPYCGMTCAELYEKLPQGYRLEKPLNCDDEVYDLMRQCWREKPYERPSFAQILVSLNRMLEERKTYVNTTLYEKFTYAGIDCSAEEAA

Sequence of Aurora2 kinase (O14965 whole entry): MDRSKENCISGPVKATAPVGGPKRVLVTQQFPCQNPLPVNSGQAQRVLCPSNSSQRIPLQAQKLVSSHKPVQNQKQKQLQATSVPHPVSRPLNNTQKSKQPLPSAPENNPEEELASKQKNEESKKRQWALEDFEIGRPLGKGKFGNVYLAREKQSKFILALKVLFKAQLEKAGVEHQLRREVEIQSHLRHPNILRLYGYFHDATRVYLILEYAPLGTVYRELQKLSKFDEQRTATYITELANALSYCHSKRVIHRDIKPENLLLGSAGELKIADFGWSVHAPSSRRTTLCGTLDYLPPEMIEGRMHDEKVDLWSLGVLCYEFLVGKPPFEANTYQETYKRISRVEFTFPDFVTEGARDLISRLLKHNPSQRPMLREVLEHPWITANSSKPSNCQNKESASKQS
Sequence of human FAK (Q05397 whole entry): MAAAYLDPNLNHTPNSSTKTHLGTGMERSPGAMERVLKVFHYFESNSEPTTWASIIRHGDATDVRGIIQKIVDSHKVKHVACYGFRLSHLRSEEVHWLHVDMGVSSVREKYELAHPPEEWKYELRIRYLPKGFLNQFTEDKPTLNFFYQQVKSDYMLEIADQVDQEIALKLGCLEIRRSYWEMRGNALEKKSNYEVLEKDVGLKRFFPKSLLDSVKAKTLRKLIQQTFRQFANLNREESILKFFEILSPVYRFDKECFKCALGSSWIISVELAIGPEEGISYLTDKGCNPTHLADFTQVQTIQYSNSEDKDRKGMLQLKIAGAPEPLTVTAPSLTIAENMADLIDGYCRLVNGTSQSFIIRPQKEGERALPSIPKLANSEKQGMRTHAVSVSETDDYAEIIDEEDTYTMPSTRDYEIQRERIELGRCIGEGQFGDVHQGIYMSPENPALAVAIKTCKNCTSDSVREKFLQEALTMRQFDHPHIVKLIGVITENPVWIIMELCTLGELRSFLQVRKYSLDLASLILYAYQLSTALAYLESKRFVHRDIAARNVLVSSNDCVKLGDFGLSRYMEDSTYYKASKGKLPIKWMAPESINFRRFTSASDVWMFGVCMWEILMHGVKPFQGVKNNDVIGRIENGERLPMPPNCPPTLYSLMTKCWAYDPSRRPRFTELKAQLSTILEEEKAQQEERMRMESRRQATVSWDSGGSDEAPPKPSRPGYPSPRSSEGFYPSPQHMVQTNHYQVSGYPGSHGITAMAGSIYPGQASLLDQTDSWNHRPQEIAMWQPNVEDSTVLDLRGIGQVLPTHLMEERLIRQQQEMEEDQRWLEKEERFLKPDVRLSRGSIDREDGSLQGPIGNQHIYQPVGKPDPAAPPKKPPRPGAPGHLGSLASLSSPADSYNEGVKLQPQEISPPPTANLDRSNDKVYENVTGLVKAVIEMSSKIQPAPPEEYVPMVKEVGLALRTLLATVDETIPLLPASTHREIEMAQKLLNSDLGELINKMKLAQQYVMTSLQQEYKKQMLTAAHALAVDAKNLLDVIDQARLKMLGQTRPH
Sequence of human KDR enzyme (P35968 786-1356): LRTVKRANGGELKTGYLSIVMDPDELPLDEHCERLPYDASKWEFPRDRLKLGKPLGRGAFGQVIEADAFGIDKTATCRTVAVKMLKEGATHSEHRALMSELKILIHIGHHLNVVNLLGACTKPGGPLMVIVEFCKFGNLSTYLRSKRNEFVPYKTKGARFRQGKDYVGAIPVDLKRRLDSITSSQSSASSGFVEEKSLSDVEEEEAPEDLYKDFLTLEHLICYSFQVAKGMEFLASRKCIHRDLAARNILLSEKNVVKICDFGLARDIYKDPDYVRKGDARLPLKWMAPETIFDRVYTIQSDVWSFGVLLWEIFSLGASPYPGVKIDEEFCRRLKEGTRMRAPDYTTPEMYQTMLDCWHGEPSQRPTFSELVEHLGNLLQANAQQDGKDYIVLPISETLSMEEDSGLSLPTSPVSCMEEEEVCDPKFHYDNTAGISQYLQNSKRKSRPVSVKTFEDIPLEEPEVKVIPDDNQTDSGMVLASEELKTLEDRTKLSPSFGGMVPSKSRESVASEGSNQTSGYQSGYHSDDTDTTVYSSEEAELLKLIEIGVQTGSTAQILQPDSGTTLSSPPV

SMILES | IC50 [1] | IC50 [2] | IC50 [3] | IC50 [4] | IC50 [5] | IC50 ([1]; read-out: CDK2 IC50) | IC50 ([2]; read-out: Au2 IC50)
O=P(OCc1ccccc1)(Oc1ccc2[nH]nc(-c3cc4ccccc4[nH]3)c2c1)c1ccccc1 (stereo not drawn) [Example 08, Phenylphosphonic acid 3-(1H-indol-2-yl)-1H-indazol-5-yl ester benzyl ester] | 3700 nM | 53 nM | 8.3 µM | 5400 nM | 130 nM |  | 
COP(=O)(Oc1ccc2[nH]ncc2c1)c1ccccc1 (stereo not drawn) [Example 10, Phenylphosphonic acid 1H-indazol-5-yl ester methyl ester] | > 10000 nM | 9130 nM | > 10 µM |  | > 10000 nM |  | 
COP(=O)(OC)c1ccc2[nH]nc(/C=C/c3ccccc3)c2c1 [Example 12, [3-((E)-styryl)-1H-indazol-5-yl]phosphonic acid dimethyl ester] | 290 nM | 140 nM |  | 2030 nM | 2310 nM |  | 
COP(=O)(Oc1ccc2[nH]nc(-c3cc4ccccc4[nH]3)c2c1)c1ccccc1 (stereo not drawn) [Example 06, Phenylphosphonic acid 3-(1H-indol-2-yl)-1-H-indazol-5-yl ester methyl ester] | 184 nM | 15 nM | 0.74 µM | 288 nM | 48 nM |  | 
CP(C)(=O)Oc1ccc2[nH]nc(-c3cc4ccccc4[nH]3)c2c1 [Example 18, Dimethylphosphinic acid 3-(1H-indol-2-yl)-1H-indazol-5-yl ester] | 33 nM | 20 nM | 7.57 µM | 228 nM | 33 nM |  | 
COP(=O)(Oc1ccc2[nH]nc(/C=C/c3ccccc3)c2c1)c1ccccc1 (stereo not drawn) [Example 25, Phenylphosphonic acid methyl ester 3-styryl-1H-indazol-5-yl ester] | 578 nM | 41 nM |  |  |  |  | 
COP(=O)(O)c1ccc2[nH]nc(-c3cccs3)c2c1 [Example 16, (3-Thiophen-2-yl-1H-indazol-5-yl)phosphonic acid monomethyl ester] | > 10000 nM | 2200 nM | > 10 µM | > 10000 nM | 2210 nM |  | 
COP(=O)(Oc1ccc2[nH]nc(-c3ccc[nH]3)c2c1)c1ccccc1 (stereo not drawn) [Example 11, Phenylphosphonic acid methyl ester 3-(1H-pyrrol-2-yl)-1H-indazol-5-yl ester] | 199 nM | 90 nM |  | 1250 nM | 229 nM |  | 
COP(=O)(Oc1ccc2[nH]nc(-c3cc4ccccc4[nH]3)c2c1)C1CCCCC1 (stereo not drawn) [Example 32, Cyclohexylphosphonic acid 3-(1H-indol-2-yl)-1H-indazol-5-yl ester methyl ester] | 1500 nM | 26 nM |  | 999 nM | 119 nM |  | 
CP(=O)(Oc1ccc2[nH]nc(/C=C/c3ccccc3)c2c1)c1ccccc1 (stereo not drawn) [Example 01, Methylphenylphosphinic acid 3-((E)-styryl)-1H-indazol-5-yl ester] | 234 nM | 37 nM | 0.279 µM | 158 nM | 40 nM |  | 
CP(=O)(Oc1ccc2[nH]nc(-c3cc4cc(OCCN5CCOCC5)ccc4[nH]3)c2c1)c1ccccc1 (stereo not drawn) [Example 05, Methylphenylphosphinic acid 3-[5-(2-morpholin-4-ylethoxy)-1H-indol-2-yl]-1H-indazol-5-yl ester] | 394 nM | 15 nM | 0.048 µM | 141 nM | 11 nM |  | 
O=P(Oc1ccc2[nH]nc(-c3cc4ccccc4[nH]3)c2c1)(c1ccccc1)c1ccccc1 [Example 04, Diphenylphosphinic acid 3-(1H-indol-2-yl)-1H-indazol-5-yl ester] | 586 nM | 99 nM | 2.9 µM | 1630 nM | 22 nM |  | 
O=P(O)(Oc1ccc2[nH]nc(-c3cc4ccccc4[nH]3)c2c1)c1ccccc1 [Example 33, Phenylphosphonic acid mono-[3-(1H-indol-2-yl)-1H-indazol-5-yl]ester] | 291 nM | 10 nM | 0.316 µM | 577 nM | 17 nM |  | 
CP(=O)(Oc1ccc2[nH]nc(-c3cc4ccccc4[nH]3)c2c1)c1ccccc1 (stereo not drawn) [Example 03, Methylphenylphosphinic acid 3-(1H-indol-2-yl)-1H-indazol-5-yl ester] | 142 nM | 20 nM | 0.816 µM | 310 nM | 3 nM |  | 
COP(=O)(Oc1ccc2[nH]nc(-c3cc4ccccc4s3)c2c1)c1ccccc1 (stereo not drawn) [Example 27, Phenylphosphonic acid 3-benzo[b]thiophen-2-yl-1H-indazol-5-yl ester methyl ester] | 7560 nM | 134 nM |  | 1880 nM | 353 nM |  | 
CCOP(=O)(OCC)c1ccc2[nH]nc(/C=C/c3ccccc3)c2c1 [Example 14, [3-((E)-styryl)-1H-indazol-5-yl]phosphonic acid diethyl ester] | 780 nM | 76 nM | 5.88 µM | 1660 nM | 290 nM |  | 
COP(=O)(Oc1ccc2[nH]nc(-c3cc4ccccc4s3)c2c1)c1ccccc1 (stereo not drawn) [Example 26, Phenylphosphonic acid 3-benzo[b]thiophen-2-yl-1H-indazol-5-yl ester methyl ester] |  |  |  |  |  | 3240 nM | 730 nM
CCOP(=O)(Oc1ccc2[nH]nc(-c3cc4nc(OC)ccc4[nH]3)c2c1)c1ccccc1 (stereo not drawn) [Example 23, Phenylphosphonic acid ethyl ester 3-(5-methoxy-1H-pyrrolo[3,2-b]pyridin-2-yl)-1H-indazol-5-yl ester] | 249 nM | 24 nM |  | 442 nM | 30 nM |  | 
COP(=O)(O)c1ccc2[nH]nc(/C=C/c3ccccc3)c2c1 [Example 13, [3-((E)-styryl)-1H-indazol-5-yl]phosphonic acid monomethyl ester] |  | 69 nM |  |  |  |  | 
O=P(Oc1ccc2[nH]nc(/C=C/c3ccccc3)c2c1)(c1ccccc1)c1ccccc1 [Example 02, Diphenylphosphinic acid 3-((E)-styryl)-1H-indazol-5-yl ester] | 991 nM | 75 nM | 3.53 µM | 508 nM | 518 nM |  | 
COP(=O)(O)c1ccc2[nH]nc(-c3cc4ccccc4[nH]3)c2c1 [Example 15, [3-(1H-Indol-2-yl)-1H-indazol-5-yl]phosphonic acid monomethyl ester] | 2260 nM | 108 nM | > 10 µM | > 10000 nM | 4080 nM |  | 
COP(=O)(O)c1ccc2[nH]nc(-c3ccc[nH]3)c2c1 [Example 17, [3-(1H-Pyrrol-2-yl)-1H-indazol-5-yl]phosphonic acid monomethyl ester] |  | 770 nM |  |  |  |  | 
CC(C)OP(=O)(Oc1ccc2[nH]nc(-c3cc4ccccc4[nH]3)c2c1)c1ccccc1 (stereo not drawn) [Example 07, Phenylphosphonic acid 3-(1H-indol-2-yl)-1H-indazol-5-yl ester isopropyl ester] | 959 nM | 24 nM | 9.64 µM | 2050 nM | 162 nM |  | 
COc1ccc2[nH]c(-c3n[nH]c4ccc(OP(=O)(OC)c5ccccc5)cc34)cc2n1 (stereo not drawn) [Example 24, phenylphosphonic acid 3-(5-methoxy-1H-pyrrolo[3,2-b]pyridin-2-yl)-1H-indazol-5-yl ester methyl ester] | 142 nM | 24 nM |  | 364 nM | 22 nM |  | 
